Like-named read-outs stand apart in the source and are kept apart here.

This note sets out measurements from patent publication US20240294541A1, “COMPOUNDS CONSTITUTING C20-MODIFIED SALINOMYCIN DERIVATIVES, A METHOD FOR OBTAINING THE SAME, A COMPOSITION CONTAINING THE SAME AND A USE OF SAID COMPOUNDS” (FILECLO SPOLKA Z OGRANICZONA ODPOWIEDZIALNOSCIA, priority 2021, published 2024).

Assay type in all cases: cell-based
Assay [1] concerns NCI-H23 (human lung cancer). The experiment in a line: In vitro cytotoxicity, SRB assay, NCI-H23.
In assay [2] the test system is PFSK-1 (malignant primitive neuroectodermal tumour). The experiment in a line: In vitro cytotoxicity, SRB assay, PFSK-1.
The test system of assay [3] is A2780 (human ovarian cancer). The experiment in a line: In vitro cytotoxicity, SRB assay, A2780.
Assay [4] relates to A2780Cis (cisplatin-resistant human ovarian cancer). The experiment in a line: In vitro cytotoxicity, SRB assay, A2780Cis. The following applies: for IC50: Homo sapiens, A2780cis.
For the next assay, the system named is A375 (human melanoma). The experiment in a line: In vitro cytotoxicity, SRB assay, A375.
Another assay concerns Hs294T (human melanoma). The experiment in a line: cells. The following applies: for IC50: Hs 294T; for SI Hs294T: selectivity coefficient vs normal BALB/3T3 fibroblasts.
Assay [5] concerns PLC/PRF/5 (human liver cancer). The assay can be described thus: cells. The conditions noted are these: for SI PLC/PRF/5: selectivity coefficient vs normal BALB/3T3 fibroblasts.
Assay [6] has as its system SNU-16 (human gastric cancer). The experiment in a line: cells. The following applies: for SI SNU-16: selectivity coefficient vs normal BALB/3T3 fibroblasts.
The subject of assay [7] is KG-1 (human acute myeloid leukaemia). The experiment in a line: In vitro cytotoxicity, MTT assay, KG-1.
For assay [8], the system named is MIA PaCa-2 (human pancreatic cancer). The assay can be described thus: cells. The following applies: for SI MIA PaCa-2: selectivity coefficient vs normal BALB/3T3 fibroblasts.
Assay [9] relates to BALB/3T3 (normal mouse fibroblasts). The experiment in a line: In vitro cytotoxicity, SRB assay, normal BALB/3T3 fibroblasts.
The subject of a further assay is cancer cells. The assay can be described thus: In vitro cytotoxic activity on the panel of cancer cell lines (MTT/SRB), general statements. The following applies: for anti-proliferative effect compared to that of the parent compound: Tables 3.1, 3.2, 4 and 5, parent compound salinomycin.
For assay [10], the system named is NCI-H358 (human lung cancer). The experiment in a line: cells. The following applies: Table 4; for IC50: NCI-H358 human lung cancer cells, read-out: IC50 (nM) NCI-H358; for SI NCI-H358: selectivity coefficient vs normal BALB/3T3 fibroblasts.
Assay [11] deals with MV-4-11 (human biphenotypic leukaemia). The assay can be described thus: In vitro cytotoxicity, MTT assay, MV-4-11. The conditions noted are these: for IC50: Homo sapiens, MV4-11, read-out: IC50 (nM) MV4-11.
Setting [12] is: selectivity coefficient vs normal BALB/3T3 cells.
[13] abbreviates: Table 4, Hs294T human melanoma cells, read-out: IC50 (nM) Hs294T.
Setting [14] is: Table 4, PLC/PRF/5 human liver cancer cells, read-out: IC50 (nM) PLC/PRF/5.
The mark [15] stands for this setting: Table 4, SNU-16 human gastric cancer cells, read-out: IC50 (nM) SNU-16.
Where [16] appears, read: Table 4, MIA PaCa-2 human pancreatic cancer cells, read-out: IC50 (nM) MIA PaCa-2.
Setting [17] is: Table 4, BALB/3T3 normal mouse fibroblasts, read-out: IC50 (nM) BALB3T3 normal cells.

`CC[C@@H](C(=O)[C@@H](C)[C@@H](O)[C@H](C)[C@@H]1O[C@@H]([C@@H](CC)C(=O)O)CC[C@@H]1C)[C@H]1O[C@]2(C=C[C@@H](NC(=O)Nc3ccccc3)[C@]3(CC[C@@](C)([C@H]4CC[C@](O)(CC)[C@H](C)O4)O3)O2)[C@H](C)C[C@@H]1C` [FLC-00374-1]: the IC50 in [1] (Homo sapiens, NCI-H23, 72 h with compound, SRB, n/a = non-active compound, read-out: NCI-H23 IC50) worked out at 2.92 nM; in assay [2] (Homo sapiens, PFSK-1, 72 h with compound, SRB, n/a = non-active compound, read-out: PFSK-1 IC50), 3.83 nM; in [3] (Homo sapiens, A2780, 72 h with compound, SRB, n/a = non-active compound, read-out: A2780 IC50), 0.45 nM; in assay [4] (72 h, read-out: A2780Cis IC50 (nM)) it was 0.11 nM; in assay [4] (read-out: IC50 (nM) A2780Cis), 0.11 nM; in the assay on A375 (human melanoma) (Homo sapiens, A-375, 72 h with compound, SRB, n/a = non-active compound, read-out: A375 IC50), 34.2 nM. Further, the IC50 in the assay with Hs294T (human melanoma) (Homo sapiens, 72 h with compound, SRB, n/a = non-active compound, read-out: Hs294T IC50) was determined as 73.1 nM; in assay [5] (Homo sapiens, PLC-PRF-5, 72 h with compound, SRB, n/a = non-active compound, read-out: PLC/PRF/5 IC50), 8.83 nM; in [6] (Homo sapiens, SNU-16, 72 h with compound, MTT, n/a = non-active compound, read-out: SNU-16 IC50), 4.03 nM; in [7] (Homo sapiens, 72 h with compound, MTT, n/a = non-active compound) it was 12.5 nM; in [8] (Homo sapiens, MIA PaCa-2, 72 h with compound, SRB, n/a = non-active compound, read-out: MIA PaCa-2 IC50) it was 28.7 nM; in assay [9] (Mus musculus, BALB/3T3, normal cells, 72 h with compound, SRB, n/a = non-active compound, read-out: BALB/3T3 IC50) it was 70.5 nM. For the same compound, the IC50 in [9] (Table 5, BALB/3T3 normal mouse fibroblasts, read-out: IC50 (nM) BALB3T3 normal cells) turned out to be 70.5 nM. Besides, the “NCI-H23 SI” value in [1] (setting [12]) was 24.1. Moreover, in [2] (setting [12]), the “PFSK-1 SI” value came to 18.4. Further, the “A2780 SI” value in [3] (setting [12]) was 156.6. The “A2780Cis RI” value in assay [4] worked out at 0.2. Also, the “A2780Cis SI” value in assay [4] was determined as 671.0. Moreover, the “SI A2780Cis” value in assay [4] is listed as 671.0. In addition, the “A375 SI” value in the assay with A375 (human melanoma) (setting [12]) is 2.1. Besides, the “Hs294T SI” value with Hs294T (human melanoma) (setting [12]) is listed as 1.0. Besides, in assay [5] (setting [12]), the “PLC/PRF/5 SI” value was 8.0. In addition, the “SNU-16 SI” value in assay [6] (setting [12]) turned out to be 17.5. The “KG-1 SI” value in assay [7] (setting [12]) came to 5.6. In addition, the “MIA PaCa-2 SI” value in assay [8] (setting [12]) was 2.5. For the same compound, the “anti-proliferative effect compared to that of the parent compound” value in the assay on cancer cells is listed as “several times more potent compared to that of the parent compound”. Moreover, the “biological properties (IC50, SI) compared to the corresponding epi compounds” value with cancer cells (table 5 comparative examples, retained vs inverted C20 configuration) is “improved biological properties compared to their counterparts with a configuration conversion”.

On to `CCCOC(=O)N[C@@H]1C=C[C@]2(O[C@H]([C@@H](CC)C(=O)[C@@H](C)[C@@H](O)[C@H](C)[C@@H]3O[C@@H]([C@@H](CC)C(=O)O)CC[C@@H]3C)[C@@H](C)C[C@H]2C)O[C@@]12CC[C@@](C)([C@H]1CC[C@](O)(CC)[C@H](C)O1)O2` [FLC-00424-1•Na], for which the IC50 is 685 nM in the assay with Hs294T (human melanoma) (setting [13]); 5.01 nM in assay [5] (setting [14]); 220 nM in assay [6] (setting [15]); 38.4 nM in [8] (setting [16]); 48.7 nM in assay [10]. Further, the “anti-proliferative effect compared to that of the parent compound” value with cancer cells is reported as “several times more potent compared to that of the parent compound”.

Take `CC[C@@H](C(=O)[C@@H](C)[C@@H](O)[C@H](C)[C@@H]1O[C@@H]([C@@H](CC)C(=O)O)CC[C@@H]1C)[C@H]1O[C@]2(C=C[C@@H](NC(=O)OCC(F)F)[C@]3(CC[C@@](C)([C@H]4CC[C@](O)(CC)[C@H](C)O4)O3)O2)[C@H](C)C[C@@H]1C` [FLC-00446-1•Na]: in [4], the “SI A2780Cis” value was found to be 294.5. In addition, the IC50 in assay [4] (read-out: IC50 (nM) A2780Cis) is 0.71 nM; in the assay on Hs294T (human melanoma) (setting [13]), 189 nM; in assay [5] (setting [14]) it was 37.9 nM; in assay [6] (setting [15]), 262 nM; in assay [8] (setting [16]), 26.8 nM; in assay [9] (setting [17]) it was 209 nM. The IC50 in [11] was determined as 0.7 nM; in assay [10], 50.8 nM. Further, in the assay with Hs294T (human melanoma) (Table 4), the “SI Hs294T” value was 1.1. The “SI PLC/PRF/5” value in assay [5] (Table 4) is 5.5. The “SI SNU-16” value in [6] (Table 4) is 0.8. Besides, the “SI MIA PaCa-2” value in [8] (Table 4) was 7.8. The “SI MV4-11” value in assay [11] was 298.7. The “SI NCI-H358” value in assay [10] came to 4.12. The “anti-proliferative effect compared to that of the parent compound” value in the assay on cancer cells is given as “several times more potent compared to that of the parent compound”.

With `CC[C@@H](C(=O)[C@@H](C)[C@@H](O)[C@H](C)[C@@H]1O[C@@H]([C@@H](CC)C(=O)O)CC[C@@H]1C)[C@H]1O[C@]2(C=C[C@@H](NC(=O)C(=O)NCCc3ccccc3)[C@]3(CC[C@@](C)([C@H]4CC[C@](O)(CC)[C@H](C)O4)O3)O2)[C@H](C)C[C@@H]1C` [FLC-00457-1•Na], the “SI A2780Cis” value in assay [4] was 76.0. For the same compound, the IC50 in assay [4] (read-out: IC50 (nM) A2780Cis) is 9.66 nM; in the assay on Hs294T (human melanoma) (setting [13]), 2530 nM; in [5] (setting [14]), 122 nM; in assay [6] (setting [15]), 551 nM; in assay [8] (setting [16]), 53.7 nM; in assay [9] (setting [17]), 734 nM. For the same compound, the IC50 in [11] worked out at 18 nM; in [10], 446 nM. Moreover, in the assay on Hs294T (human melanoma) (Table 4), the “SI Hs294T” value is reported as 0.3. In addition, the “SI PLC/PRF/5” value in assay [5] (Table 4) was determined as 6.0. Moreover, the “SI SNU-16” value in assay [6] (Table 4) came out at 1.3. Besides, the “SI MIA PaCa-2” value in [8] (Table 4) amounted to 13.7. The “SI MV4-11” value in [11] was 40.7. In assay [10], the “SI NCI-H358” value turned out to be 1.65. Also, the “anti-proliferative effect compared to that of the parent compound” value in the assay on cancer cells was “several times more potent compared to that of the parent compound”.
